Laboratory results reported in publication PMC6797481, “Identification of an allosteric binding site on the human glycine transporter, GlyT2, for bioactive lipid analgesics” (eLife, 2019).

Columns and labels:
[1] = system: rat model of neuropathic pain; design: method as in Mostyn et al., 2019; settings: ref Mostyn et al., 2019; cited from earlier work
GlyT2 WT = biological target: T1, GlyT2 WT (Homo sapiens, UniProt Q9Y345); settings: read-out: Glycine EC50, glycine transport, mean ± SEM
T1 sequence (Q9Y345 1-797): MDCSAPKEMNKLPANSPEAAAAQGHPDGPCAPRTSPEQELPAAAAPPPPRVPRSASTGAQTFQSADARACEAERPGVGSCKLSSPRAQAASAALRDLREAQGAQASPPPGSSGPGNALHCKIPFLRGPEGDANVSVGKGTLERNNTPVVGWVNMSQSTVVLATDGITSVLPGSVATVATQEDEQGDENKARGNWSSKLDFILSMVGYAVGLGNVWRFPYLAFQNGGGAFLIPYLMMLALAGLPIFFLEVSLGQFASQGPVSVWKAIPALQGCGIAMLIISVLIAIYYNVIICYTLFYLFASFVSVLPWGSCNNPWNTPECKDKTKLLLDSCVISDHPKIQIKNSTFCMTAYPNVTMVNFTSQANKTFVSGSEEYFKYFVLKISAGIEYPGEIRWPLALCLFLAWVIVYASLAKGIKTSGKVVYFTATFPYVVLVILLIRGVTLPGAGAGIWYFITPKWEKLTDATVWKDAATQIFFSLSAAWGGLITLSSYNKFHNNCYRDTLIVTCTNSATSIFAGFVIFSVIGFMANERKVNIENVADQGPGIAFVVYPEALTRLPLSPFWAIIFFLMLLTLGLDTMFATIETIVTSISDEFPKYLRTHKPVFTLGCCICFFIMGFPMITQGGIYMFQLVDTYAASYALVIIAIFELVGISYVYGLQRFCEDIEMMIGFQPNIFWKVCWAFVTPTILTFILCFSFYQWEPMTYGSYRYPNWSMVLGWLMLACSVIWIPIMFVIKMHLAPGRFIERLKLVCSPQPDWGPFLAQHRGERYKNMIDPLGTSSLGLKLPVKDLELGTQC
Description: Human GlyT1b or GlyT2a (herein referred to as GlyT1 and GlyT2) cDNA were sub-cloned into the plasmid oocyte transcription vector (pOTV). Site-directed mutagenesis was performed using traditional PCR techniques, and sequences confirmed by the Australian Genome Research Facility (Sydney, Australia). WT and mutant plasmid DNA were linearised with SpeI (New England Biolabs (Genesearch) Arundel, Australia) and RNA transcribed by T7 RNA polymerase using the mMessagemMachine kit (Ambion, TX, USA).
Oocytes were extracted from female Xenopus laevis frogs and detached from follicle cell containing lobes by digestion with 2 mg/mL collagenase A (Boehringer, Mannheim, Germany). Defoliculated stage V-VI oocytes were injected with 4.6 ng of cRNA encoding WT or mutant transporter (Drummond Nanoinject, Drummond Scientific Co., Broomall, PA, USA). Surgical proceedures have been approved by the University of Sydney Animal Ethics Committee (protocol 2016/970). […]
2–5 days following injection, glycine transport currents were measured at −60 mV using Geneclamp 500 amplifier (Axon Instruments, Foster City, CA, USA) with a Powerlab 2/20 chart recorder (ADInstruments, Sydney, Australia) and chart software (ADInstruments). All data were subsequently analysed using GraphPad Prism 7.02 (GraphPad Software, San Diego, CA). […]

Row | Compound | analgesia [1] | side effects [1] | EC50 (GlyT2 WT)
1 | oleoyl d-Lysine | produces analgesia | minimal side effects | 
2 | NCC(=O)O [Glycine] |  |  | 14.5 ± 2.6 µM
